# Entries after “also recorded” stand apart in the source; their conditions may differ. Ends that are not written are not given here.
# Assays:
# [1] = system: subcutaneous xenograft models of breast and pancreatic cancers; assay: Subcutaneous xenograft models in nude mice, tumor growth; assay type: in vivo; conditions: for anticancer effect on tumor growth in vivo: single agent, mouse xenograft
# From the text: (§1) Furthermore, these compounds sensitized the cancer cells to chemotherapy. […] See, FIGS. 3-14.
# [2] = system: cancer cells, including breast, colon, pancreatic, melanoma, lung, osteosarcoma; assay: Cancer cell viability and proliferation assays (CellTiter 96, CellTiter-Blue, MTT); assay type: cell-based, human
# Method: Cell-based assays. Selected small molecules are evaluated in cell-based proliferation and apoptosis assays in model system of BT474 and MCF7 breast cancer cells and normal MCF10 cells. Other cells lines relevant for study are MiaPaCa-2 and PANC-1 (pancreatic cancer), A375 (melanoma), A549 (lung cancer), HT29 and COLO5 (colon cancer), SAOS (osteosarcoma), HCT116 p53(−/−) and HCT116 p53(+/+) (colon cancer) and C8186 (melanoma). The multiplex approach to analyze more than one parameter from the same culture well is used.
# CellTiter 96 Aqueous One Solution Cell Proliferation Assay (Promega). The assay is performed by adding a small amount of the One Solution Reagent directly to culture wells, incubating for 1-4 hours and then recording absorbance at 490 nm with a spectrophotometric plate reader. The quantity of formazan product as measured by the amount of 490 nm absorbance is directly proportional to the number of living cells in culture;
# The CellTiter-Blue Cell Viability Assay (Promega). CellTiter-Blue Reagent is added directly to each well (20μ reagent to each 100μ of medium in 96-well format), the plates are incubated at 37° C., and the fluorescent signal is measured (560Ex/590Em). This test can be combined with additional assays. The caspase activity is measured in the same wells by adding 120μ of the Apo-ONE Homogeneous Caspace-3/7 Assay Reagent (Promega). […]
# [3] = target: T1, FAK (Homo sapiens, UniProt Q05397); assay: FAK dephosphorylation in cells; assay type: cell-based
# T1 construct: specific displacement of FAK from the focal adhesions of the tumor cells; endogenous in cells; host or cells: tumor cells; BT474 named for the focal adhesion staining
# Method: (§2) Measurement of FAK-specific effect. The readout of a FAK-specific effect of selected in silico small molecules is specific displacement of FAK from the focal adhesions of the tumor cells. Tumor cells are doubly stained with FAK and paxillin using dual color techniques and extensive biochemical analyses of effects on FAK signaling are performed, essentially as previously published. See, Garces, C. A., et al., Vascular Endothelial Growth Factor Receptor-3 and Focal Adhesion Kinase Bind and Suppress Apoptosis in Breast Cancer Cells. Cancer Res % R 10.1158/0008-5472.CAN-05-1661, 2006. 66(3): p. 1446-1454; Xu, L.-h., et al., The focal adhesion kinase suppresses transformation-associated, anchorage-Independent apoptosis in human breast cancer cells. J. Biol. Chem., 2000. 275: p. 30597-30604; Kurenova, E., et al., Focal Adhesion Kinase Suppresses Apoptosis by Binding to the Death Domain of Receptor-Interacting Protein. Mol. Cell. Biol., 2004. 24(10): p. 4361-4371.
# [4] = system: cancer cells; assay: Dual treatment of cancer cells with C4 and chemotherapeutic drugs; assay type: cell-based, human
# From the text: FIG. 1.9. Dual treatment of cancer cells with C4 compound and chemotherapeutic drugs. […] Concentrations correspond to IC50 cell-specific concentration for all used drugs.
# [5] = system: MCF7 control clone transfected with the vector pcDNA3; assay: Viability of control MCF7 clone transfected with vector pcDNA3; assay type: cell-based, human; conditions: 1 mM
# [6] = system: cancer cells; assay: Cell cycle and apoptosis of cancer cells; assay type: cell-based, human
# Method: Cell-based assays. Selected small molecules are evaluated in cell-based proliferation and apoptosis assays in model system of BT474 and MCF7 breast cancer cells and normal MCF10 cells. Other cells lines relevant for study are MiaPaCa-2 and PANC-1 (pancreatic cancer), A375 (melanoma), A549 (lung cancer), HT29 and COLO5 (colon cancer), SAOS (osteosarcoma), HCT116 p53(-/-) and HCT116 p53(+/+) (colon cancer) and […] (melanoma). The multiplex approach to analyze more than one parameter from the same culture well is used. The CellTiter-Blue Cell Viability Assay (Promega). CellTiter-Blue Reagent is added directly to each well (20μ reagent to each 100μ of medium in 96-well format), the plates are incubated at 37° C., and the fluorescent signal is measured (560Ex/590Em). This test can be combined with additional assays. The caspase activity is measured in the same wells by adding 120μ of the Apo-ONE Homogeneous […]-3/7 Assay Reagent (Promega). Cells are incubated for an additional hour at ambient temperature prior to recording fluorescence (485Ex/527Em);
# [7] = target: T2, FAK and VEGFR-3 interaction (Homo sapiens, UniProt Q05397); assay: FAK and VEGFR-3 interaction and colocalization (immunofluorescence confocal microscopy, FRET); assay type: cell-based; conditions: for colocalization of FAK and VEGFR-3 in the cells: confocal microscopy
# T2 construct: endogenous in cells; BT474 for the FAK/VEGFR-3 staining
# Method: as §1
# (§3) FIG. 1.3. […] FAK and VEGFR-3 in BT474 cells were stained for FAK with a Texas Red-conjugated secondary antibody and VEGFR-3 with a Alexa Fluor 488-conjugated secondary antibody and then viewed with a Leica confocal microscope. After 24 hours of peptide-AV3 (black) treatment, staining was repeated, proliferation was measured by MTT assay, apoptosis was measured by Hoechst staining and TUNEL Assay. Control scrambled peptide-AV3S (white) was also used in all experiments. (FIG. 1.10, STEP 2A).
# [8] = target: T3, VEGFR-3 (Homo sapiens, UniProt P35916); assay: VEGFR-3 dephosphorylation in cells; assay type: cell-based
# T3 construct: expressed in transfected cells
# [9] = system: cancer cells; assay: Motility and invasiveness of cancer cells; assay type: cell-based
# [10] = system: MCF7 cells overexpressing wt VEGFR3; assay: Viability of stable clone overexpressing wt VEGFR3 in MCF7 cells; assay type: cell-based, human; conditions: 1 mM
# [11] = system: PARP; assay: PARP down-regulation; assay type: cell-based
# From the text: As such, these compounds are useful as therapeutic agents.
# [12] = target: T4, FAK in focal adhesions of BT474 cells (Homo sapiens, UniProt Q05397); assay: Displacement of FAK from focal adhesions (dual colour staining, confocal microscopy); assay type: cell-based; conditions: 24 hours of peptide treatment
# T4 construct: specific displacement of FAK from the focal adhesions of the tumor cells; endogenous in cells; host or cells: tumor cells; BT474 named for the focal adhesion staining
# Method: as §2
# as §3, with “Control scrambled peptide-AV3S (white) was also used in all experiments. (FIG. 1.10, STEP 2A).” left out
# [13] = system: breast cancer cell lines; assay: Peptide effect on proliferation (MTT), detachment and apoptosis (Hoechst, TUNEL) in breast cancer cell lines; assay type: cell-based, human; conditions: 24 hours
# Method: as §3
# T1 sequence (Q05397 whole entry): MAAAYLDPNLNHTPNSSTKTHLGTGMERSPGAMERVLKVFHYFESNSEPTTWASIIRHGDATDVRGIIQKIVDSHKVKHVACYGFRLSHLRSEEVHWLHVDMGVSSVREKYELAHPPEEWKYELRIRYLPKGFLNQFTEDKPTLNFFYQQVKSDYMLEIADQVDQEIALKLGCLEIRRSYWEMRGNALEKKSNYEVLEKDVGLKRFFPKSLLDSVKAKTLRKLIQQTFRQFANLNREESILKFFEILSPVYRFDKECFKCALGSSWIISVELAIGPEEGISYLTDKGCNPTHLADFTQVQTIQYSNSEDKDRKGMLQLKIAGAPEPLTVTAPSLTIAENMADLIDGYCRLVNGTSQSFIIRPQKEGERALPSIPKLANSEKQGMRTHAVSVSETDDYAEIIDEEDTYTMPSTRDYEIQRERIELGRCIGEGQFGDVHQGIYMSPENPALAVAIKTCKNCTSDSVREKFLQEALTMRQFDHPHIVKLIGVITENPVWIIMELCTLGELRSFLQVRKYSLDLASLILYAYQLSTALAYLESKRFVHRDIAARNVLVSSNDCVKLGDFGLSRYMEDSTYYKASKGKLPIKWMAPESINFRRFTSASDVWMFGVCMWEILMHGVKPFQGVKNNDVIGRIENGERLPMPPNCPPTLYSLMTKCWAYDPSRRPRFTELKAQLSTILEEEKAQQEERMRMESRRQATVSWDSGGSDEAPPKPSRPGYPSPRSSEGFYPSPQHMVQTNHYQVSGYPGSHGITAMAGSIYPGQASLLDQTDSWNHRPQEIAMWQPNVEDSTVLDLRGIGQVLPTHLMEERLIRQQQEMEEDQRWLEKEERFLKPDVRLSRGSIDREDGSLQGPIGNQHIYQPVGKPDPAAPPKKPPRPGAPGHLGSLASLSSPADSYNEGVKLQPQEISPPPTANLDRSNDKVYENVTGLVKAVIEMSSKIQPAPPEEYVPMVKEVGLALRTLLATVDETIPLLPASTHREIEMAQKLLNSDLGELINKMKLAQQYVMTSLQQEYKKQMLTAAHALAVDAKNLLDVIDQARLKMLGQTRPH
# T2 sequence (Q05397 2-1052 limits assumed): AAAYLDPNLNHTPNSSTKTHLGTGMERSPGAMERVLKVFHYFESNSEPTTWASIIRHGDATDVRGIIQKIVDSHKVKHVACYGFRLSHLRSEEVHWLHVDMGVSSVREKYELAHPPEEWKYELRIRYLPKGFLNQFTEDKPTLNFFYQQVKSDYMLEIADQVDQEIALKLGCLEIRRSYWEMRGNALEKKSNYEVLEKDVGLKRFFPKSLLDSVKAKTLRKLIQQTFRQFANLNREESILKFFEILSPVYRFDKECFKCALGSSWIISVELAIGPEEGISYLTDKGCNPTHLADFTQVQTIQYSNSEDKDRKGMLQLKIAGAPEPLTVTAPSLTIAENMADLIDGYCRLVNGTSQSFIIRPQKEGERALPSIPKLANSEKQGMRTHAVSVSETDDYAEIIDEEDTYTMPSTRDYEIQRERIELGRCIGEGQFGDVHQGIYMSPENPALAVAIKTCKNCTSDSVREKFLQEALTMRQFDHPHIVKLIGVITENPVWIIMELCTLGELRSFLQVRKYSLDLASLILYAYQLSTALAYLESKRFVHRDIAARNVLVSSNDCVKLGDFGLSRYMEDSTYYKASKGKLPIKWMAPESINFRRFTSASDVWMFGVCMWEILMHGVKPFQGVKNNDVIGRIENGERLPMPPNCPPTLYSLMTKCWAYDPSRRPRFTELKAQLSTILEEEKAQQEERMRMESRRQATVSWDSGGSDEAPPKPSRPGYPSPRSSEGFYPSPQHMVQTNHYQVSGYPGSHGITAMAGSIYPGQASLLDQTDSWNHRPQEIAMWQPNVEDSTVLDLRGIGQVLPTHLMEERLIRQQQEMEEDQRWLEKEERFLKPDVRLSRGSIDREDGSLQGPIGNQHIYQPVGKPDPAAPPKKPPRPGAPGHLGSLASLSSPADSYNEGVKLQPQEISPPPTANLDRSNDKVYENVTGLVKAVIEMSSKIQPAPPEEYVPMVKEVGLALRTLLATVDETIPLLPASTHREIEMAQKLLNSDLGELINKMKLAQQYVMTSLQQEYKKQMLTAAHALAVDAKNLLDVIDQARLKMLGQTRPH
# T4 sequence (Q05397 whole entry): as the sequence (Q05397 whole entry) above
# T3 sequence (P35916 25-1363): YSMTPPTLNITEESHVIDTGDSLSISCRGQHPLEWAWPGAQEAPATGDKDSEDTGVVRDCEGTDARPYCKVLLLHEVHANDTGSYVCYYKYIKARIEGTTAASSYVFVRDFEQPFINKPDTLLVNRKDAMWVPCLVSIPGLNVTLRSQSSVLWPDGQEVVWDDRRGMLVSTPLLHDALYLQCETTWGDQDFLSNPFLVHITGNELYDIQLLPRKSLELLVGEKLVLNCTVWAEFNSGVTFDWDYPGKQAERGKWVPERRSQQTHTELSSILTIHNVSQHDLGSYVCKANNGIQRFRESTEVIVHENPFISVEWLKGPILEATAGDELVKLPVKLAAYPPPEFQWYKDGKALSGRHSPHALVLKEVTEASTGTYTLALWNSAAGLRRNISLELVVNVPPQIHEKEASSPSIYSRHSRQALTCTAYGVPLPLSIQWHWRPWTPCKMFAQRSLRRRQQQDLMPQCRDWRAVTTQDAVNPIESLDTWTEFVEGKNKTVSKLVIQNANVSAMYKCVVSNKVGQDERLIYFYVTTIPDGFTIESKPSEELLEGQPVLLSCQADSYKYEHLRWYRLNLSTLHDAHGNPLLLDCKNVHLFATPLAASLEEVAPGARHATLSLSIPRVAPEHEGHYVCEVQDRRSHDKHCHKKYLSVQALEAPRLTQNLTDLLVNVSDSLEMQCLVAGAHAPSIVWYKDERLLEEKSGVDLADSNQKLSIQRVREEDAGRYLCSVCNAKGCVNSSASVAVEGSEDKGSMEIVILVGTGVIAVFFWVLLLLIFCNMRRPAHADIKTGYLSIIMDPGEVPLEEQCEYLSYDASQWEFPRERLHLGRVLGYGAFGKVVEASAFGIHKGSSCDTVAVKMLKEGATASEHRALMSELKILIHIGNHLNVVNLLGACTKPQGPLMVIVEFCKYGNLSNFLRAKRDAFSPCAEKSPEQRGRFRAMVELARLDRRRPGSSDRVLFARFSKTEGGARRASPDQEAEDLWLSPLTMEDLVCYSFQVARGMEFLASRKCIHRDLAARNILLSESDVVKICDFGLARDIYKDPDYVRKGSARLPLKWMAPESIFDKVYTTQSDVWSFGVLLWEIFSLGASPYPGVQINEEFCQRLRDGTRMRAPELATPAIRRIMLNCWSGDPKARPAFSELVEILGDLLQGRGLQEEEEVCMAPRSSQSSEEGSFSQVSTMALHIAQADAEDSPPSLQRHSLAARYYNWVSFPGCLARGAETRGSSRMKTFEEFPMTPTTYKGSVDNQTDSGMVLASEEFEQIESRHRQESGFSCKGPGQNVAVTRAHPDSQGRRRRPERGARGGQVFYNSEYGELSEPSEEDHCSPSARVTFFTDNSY
molecule,measurement,setting,value
"CN(C)CCOC(c1ccccc1)c1ccccc1 [Benadryl, reference compound]",anticancer effect on tumor growth in vivo,[1],no any anticancer properties
"CN(C)CCN(Cc1ccc(Cl)cc1)c1ccccn1 [Compound C4, N′-[(4-chlorophenyl)methyl]-N,N-dimethyl-N′-pyridin-2-yl-ethane-1,2-diamine]",cell proliferation,[2],delay in cell proliferation
same,viability of cancer cells,[2]; in vitro,decreases viability of many different types of cancer cells
same,FAK phosphorylation,[3],specifically dephosphorylates FAK and VEGFR-3
same,effect of dual treatment with doxorubicin,"[4]; C4 combined with doxorubicin, IC50 cell-specific concentrations",At least additive effect is very pronounced
same,cell viability in combination with chemotherapy (sensitization),"[4]; in combination with Doxorubicin and Gemcitabine, in vitro",improved effect on decrease of cells viability; also recorded: sensitizes pancreatic cancer and breast cancer cells to chemotherapy treatment in vitro
same,viability of control clone,[5],resistant to this concentration of the drug
same,reduction of tumor growth in comparison with nontreated tumors,"[1]; 60 mg/kg, daily intraperitoneal injections, nude mice",up to 75%
same,tumor growth after treatment withdrawal,"[1]; C4 combined with Gemcitabine, pancreatic tumor",prolonged cytostatic effect on pancreatic tumor growth after treatment withdrawal
same,anticancer effect in combination with Gemcitabine,"[1]; C4 combined with Gemcitabine, versus each drug separately",much stronger anticancer effect than each of the drugs separately
same,tumor growth compared with doxorubicin,[1]; breast cancer,decreases tumor growth better than doxorubicin
same,anticancer effect on tumor growth in vivo,[1],strong anticancer effect; also recorded: reduces tumor growth in vivo in mouse model of breast cancer and pancreatic cancer
same,cell cycle,[6],blockage at G1/S cell cycle transition
same,apoptosis of cancer cells,[6]; in vitro,apoptosis of cancer cells; also recorded: causes apoptosis in pancreatic and breast cancer cells in vitro
same,FAK and VEGFR-3 interaction,[7],disrupts their interaction
same,colocalization of FAK and VEGFR-3 in the cells,[7],decrease in their colocalization in the cells
same,VEGFR-3 phosphorylation,[8],specifically dephosphorylates FAK and VEGFR-3
same,dephosphorylation of VEGFR3,[8]; treatment for 24 h with 10 mM compound,caused dephosphorylation of VEGFR3
same,motility and invasiveness of cancer cells,[9],reduces motility and invasiveness of cancer cells
same,viability of VEGFR3 clone,[10],reproducible decrease in viability
"COC(=O)Nc1nc2ccc(C(=O)C3CC3)cc2[nH]1 [Compound D4, methyl N-[5-(cyclopropanecarbonyl)-3H-benzoimidazol-2-yl]carbamate]",PARP level,[11],causes PARP down-regulation
same,phosphorylation of Y397,[3],cause de-phosphorylation of Y397
"Cc1cc(C)nc(Nc2nc3cc([N+](=O)[O-])ccc3[nH]2)n1 [Compound D5, (4,6-Dimethyl-pyrimidin-2-yl)-(5-nitro-1H-benzoimidazol-2-yl)-amine]",phosphorylation of Y397,[3],cause de-phosphorylation of Y397
"COc1ccc(NC(=O)Nc2cc(Cl)ccc2OC)c(Cl)c1 [Compound D6, 1-(2-chloro-4-methoxy-phenyl)-3-(5-chloro-2-methoxy-phenyl) urea]",phosphorylation of Y397,[3],cause de-phosphorylation of Y397
WHWRPWTPCKMF (also: TAT penetration sequence coupled for cell tests) [peptide-AV3],displacement of FAK from the focal adhesions,[12],caused specific displacement of FAK from the focal adhesions
same,displacement of FAK from the focal adhesions,[12]; listed as Peptide-AV3,causes specific displacement of FAK from the focal adhesions
same,cell detachment in breast cancer cell lines,[13],caused cell detachment
same,cell detachment in breast cancer cell lines,[13]; listed as Peptide-AV3,increased detachment
same,apoptosis in breast cancer cell lines,[13]; Hoechst staining and TUNEL,apoptosis
same,proliferation of breast cancer cell lines,[13]; MTT,decreased proliferation
same,colocalization of FAK and VEGFR-3 in the cells,[7],affected co-localization of FAK and VEGFR-3; also recorded: affected colocalization of FAK and VEGFR-3

# Reference: US8404669B2, “Kinase modulating compounds and uses thereof for treatment of cancer” (University of Florida Research Foundation, Inc., priority 2007, dated 2013)
